Patent publication US4303785A, “Antitumor anthracycline antibiotics” (priority 1978, dated 1981)
≈ marks a conversion by molar mass, not a printed value. Read-outs that look alike come from different tables or passages of the source.

Columns and labels:
[1] = system: L1210 leukemia; assay: Antitumor activity in BDF1 mice inoculated with L1210 leukemia cells (Table 6); format: in vivo; settings: once daily for 10 days
Source text: As an example, BDF1 mice were inoculated intraperitoneally with 1×10^6 cells/mouse of L1210 leukemia cells.

[2] = system: L1210 cells; assay: Inhibition of 14C-uridine and 14C-thymidine incorporation (nucleic acid synthesis) in L1210 cells in culture (Table 5); format: cell-based; settings: for IC50: Mus musculus, L1210, 1 h
Description: The effect of the tetrahydropyranyl ether derivatives of formula I' on nucleic acid synthesis was examined as follows: […]
1×10^5 cells/ml. of L1210 cells were suspended in RPMI medium containing 10% calf serum, pre-cultivated at 37° C. for 1 to 2 hours in a CO2 incubator and then the test compounds were added to the medium at various concentrations. After 15 min. of incubation, ^14 C-uridine (0.05 μCi/ml.) or ^14 C-thymidine (0.05 μCi/ml.) was added and incubated at 37° C. for 60 min. Trichloroacetic acid (TCA) (10%) was added to the incubation medium to stop the reaction and precipitate the acid-insoluble materials, and then the precipitate was washed three times with 5 to 10% […]. The radioactivity was measured and expressed as 50% inhibition concentration of incorporation.

[3] = system: NADPH-cytochrome P450 reductase; assay: Stability on rat hepatic NADPH-cytochrome P450 reductase: 7-deoxyaglycone formed (Table 7); format: in vitro ADME; settings: 25° C., 25 min., nitrogen; substrate 0.1 mM, NADPH 0.2 mM, enzyme 4.6 μg./ml, pH 8.0
Description: C. The marked antitumor effects seen from A and B above were confirmed by the stability of the test compounds on the inactivation by hepatic NADPH-cytochrome P450 reductase. Specifically, NADPH-cytochrome P450 reductase purified from rat liver homogenate was incubated with the tetrahydropyranyl ether derivatives of formula I' at 25° C. for 25 min. in nitrogen gas phase, and the incubation product formed, 7-deoxyaglycone, was determined as shown in Table 7.

[4] = system: L1210 leukemia cells; assay: Growth inhibitory effect on L1210 cells in culture (Table 4); format: cell-based; settings: for inhibition at 0.1 µg/mL / inhibition at 0.5 µg/mL: Mus musculus, L1210, read-out: Inhibition Rate (growth)
Description: For example, L1210 cells (5×10^4 cells/ml.) were inoculated in RPMI 1640 medium (Roswell Park Memorial Institute 1640) containing 20% calf serum and cultivated at 37° C. in the presence of 0.1 and 0.5 μg./ml. of the test compounds in a CO2 incubator.

[5] = system: Pseudomonas aeruginosa A3; assay: Minimum inhibitory concentration, broth dilution method (Table 3); format: cell-based; settings: Pseudomonas aeruginosa A3
Source text: (§1) To illustrate such activity, minimum inhibitory concentrations (as determined by the broth dilution method) of representative compounds are shown in Table 3.

[6] = system: Micrococcus flavus FDA 16; assay: as above; format: cell-based; settings: Micrococcus flavus FDA 16
Source text: as §1

[7] = system: Staph. aureus FDA 209P; assay: as above; format: cell-based
Source text: as §1

[8] = system: Candida albicans; assay: as above; format: cell-based
Source text: as §1

[9] = system: Bacillus cereus ATCC 10702; assay: as above; format: cell-based
Source text: as §1

[10] = system: Staph. aureus Smith; assay: as above; format: cell-based
Source text: as §1

[11] = system: Corynebacterium bovis 1810; assay: as above; format: cell-based
Source text: as §1

[12] = system: Sarcina lutea PCI 1001; assay: as above; format: cell-based
Source text: as §1

[13] = system: Bacillus subtillis NRRLB-558; assay: as above; format: cell-based; settings: Bacillus subtillis NRRLB-558
Source text: as §1

[14] = system: Escherichia coli NIHJ; assay: as above; format: cell-based
Source text: as §1

[15] = system: Bacillus megaterium APF; assay: as above; format: cell-based
Source text: as §1

[16] = system: Mycobacterium smegmatis ATCC 607; assay: as above; format: cell-based
Source text: as §1

[17] = system: various experimental tumors; settings: cited from earlier work
[18] = system: L1210 cells; assay: animal or person; format: in vivo, CDF1 mice; settings: once daily for 10 days; for response vs control in vivo at 0.15 mg/kg: 0.15 mg/kg/day i.p.; for response vs control in vivo at 0.31 mg/kg: 0.31 mg/kg/day i.p.; for response vs control in vivo at 0.625 mg/kg: 0.625 mg/kg/day i.p.; for response vs control in vivo at 1.25 mg/kg: 1.25 mg/kg/day i.p.; for response vs control in vivo at 2.5 mg/kg: 2.5 mg/kg/day i.p.
Description: D. Representative compounds of general formula I" were tested against experimental animal tumors as follows: […]
CDF1 mice were administered intraperitoneally (i.p.) with 1×10^5 cells/mouse of L1210 cells. After 24 hours had elapsed since inoculation, the mice were administered the test compounds intraperitoneally once daily for 10 consecutive days and observed for a 45 day period.
The antitumor activity was shown by the prolongation rate of survival day (T/C, %) to the survival day of control mice injected with physiological saline.

[19] = cited from earlier work
[20] = read-out: 50% Inhibition Concentration of 14C-Thymidine Incorporation
[21] = read-out: 50% Inhibition Concentration of 14C-Uridine Incorporation
[22] = Mus musculus, L1210, ip, 1080 h, read-out: Antitumor Activity (T/C, prolongation rate of survival day)

SMILES	Antitumor Activity (T/C, prolongation rate of survival day) ([1]; 0.15 mg./kg./day i.p.) [%]	Antitumor Activity (T/C, prolongation rate of survival day) ([1]; 0.3 mg./kg./day i.p.) [%]	Antitumor Activity (T/C, prolongation rate of survival day) ([1]; 5 mg./kg./day i.p.)	IC50 [2, 20] [µg/mL]	IC50 [2, 21] [µg/mL]	antitumor spectrum [17]	inhibition at 0.1 µg/mL [4] [%]	inhibition at 0.5 µg/mL [4] [%]	response vs control in vivo at 0.15 mg/kg [18, 22] [%]	response vs control in vivo at 0.31 mg/kg [18, 22] [%]	response vs control in vivo at 0.625 mg/kg [18, 22] [%]	response vs control in vivo at 1.25 mg/kg [18, 22] [%]	response vs control in vivo at 2.5 mg/kg [18, 22] [%]	further results
COc1cccc2c1C(=O)c1c(O)c3c(c(O)c1C2=O)C[C@@](O)(C(C)=O)C[C@@H]3O[C@H]1C[C@H](N)[C@H](OC2CCCCO2)[C@H](C)O1 (single isomer, unassigned; isomer b) [4'-O-PDb, 4'-O-tetrahydropyranyl daunomycin (isomer b)]	90	103	> 320%	–	–	–	–	–	–	–	–	–	–	Antitumor Activity (T/C, prolongation rate of survival day) ([1]; 0.6 mg./kg./day i.p.): 115%; Antitumor Activity (T/C, prolongation rate of survival day) ([1]; 1.25 mg./kg./day i.p.): 122%; Antitumor Activity (T/C, prolongation rate of survival day) ([1]; 2.5 mg./kg./day i.p.): 256%; 50% Inhibition Concentration of 14C-Thymidine Incorporation ([2]; thymidine, 60 min. at 37° C.): 0.32 µg/mL; 50% Inhibition Concentration of 14C-Uridine Incorporation ([2]; uridine, 60 min. at 37° C.): 0.20 µg/mL; Product (7-Deoxyaglycone) [3]: 46.6 nmoles/tube; Inhibition Rate (growth) ([4]; 0.1 μg./ml.): 74.6%; Inhibition Rate (growth) ([4]; 0.5 μg./ml.): 88.8%; Minimum Inhibitory Concentration (MIC) [5]: > 50 µg/mL; Minimum Inhibitory Concentration (MIC) [6]: 1.56 µg/mL; Minimum Inhibitory Concentration (MIC) [7]: 6.25 µg/mL; Minimum Inhibitory Concentration (MIC) [8]: 25 µg/mL; Minimum Inhibitory Concentration (MIC) [9]: 6.25 µg/mL; Minimum Inhibitory Concentration (MIC) [10]: 3.12 µg/mL; Minimum Inhibitory Concentration (MIC) [11]: 0.78 µg/mL; Minimum Inhibitory Concentration (MIC) [12]: 0.39 µg/mL; Minimum Inhibitory Concentration (MIC) [13]: 1.56 µg/mL; Minimum Inhibitory Concentration (MIC) [14]: > 100 µg/mL; Minimum Inhibitory Concentration (MIC) [15]: 3.12 µg/mL; Minimum Inhibitory Concentration (MIC) [16]: 6.25 µg/mL
COc1cccc2c1C(=O)c1c(O)c3c(c(O)c1C2=O)C[C@@](O)(C(=O)CO)C[C@@H]3O[C@H]1C[C@H](N)[C@H](O)[C@H](C)O1 [Adriamycin, adriamycin, reference compound]	128	165	toxic	2.1 (≈ 3.86 µM)	0.5 (≈ 0.92 µM)	broad antitumor spectrum against various experimental tumors	70.7	84.2	130	147	239	272	351	response vs control in vivo at 5 mg/kg ([18]; Mus musculus, L1210, ip, 1080 h, 5 mg/kg/day i.p., read-out: Antitumor Activity (T/C, prolongation rate of survival day)): 189%; side effects in clinical use ([19]; clinical antitumor agents): severe side effects such as alopecia, leukopenia and cardiotoxicity
COc1cccc2c1C(=O)c1c(O)c3c(c(O)c1C2=O)C[C@@](O)(C(C)=O)C[C@@H]3O[C@H]1C[C@H](N)[C@H](O)[C@H](C)O1 [Daunomycin, daunomycin, reference compound]	–	–	–	0.7 (≈ 1.33 µM)	0.4 (≈ 0.758 µM)	broad antitumor spectrum against various experimental tumors	68.8	72.7	118	132	145	191	138	Antitumor Activity (T/C, prolongation rate of survival day) ([18]; 5 mg/kg/day i.p.): Tox.; side effects in clinical use ([19]; in vivo): severe side effects such as alopecia, leukopenia and cardiotoxicity
